Data from ChEMBL document CHEMBL6092191, “Advancing Cancer Immunotherapy through Engineering New PD-L1 Degraders: A Comprehensive Study from Small Molecules to PD-L1-Specific Peptide-Drug Conjugates” (J Med Chem, 2024).
The source made the active and inactive calls. The calls are words filed in the database; no cut-off is given here.

Tests used:
[1] = biological target: COP9 signalosome complex subunit 5 (Homo sapiens) (UniProt Q92905); assay: Induction of IFN-gamma-induced PD-L1 degradation in human A549 cells at 10 uM incubated for 24 hrs by Western blot analysis; assay type: cell-based
Chain of COP9 signalosome complex subunit 5 (Homo sapiens) (Q92905 2-334 limits assumed, one chain of several): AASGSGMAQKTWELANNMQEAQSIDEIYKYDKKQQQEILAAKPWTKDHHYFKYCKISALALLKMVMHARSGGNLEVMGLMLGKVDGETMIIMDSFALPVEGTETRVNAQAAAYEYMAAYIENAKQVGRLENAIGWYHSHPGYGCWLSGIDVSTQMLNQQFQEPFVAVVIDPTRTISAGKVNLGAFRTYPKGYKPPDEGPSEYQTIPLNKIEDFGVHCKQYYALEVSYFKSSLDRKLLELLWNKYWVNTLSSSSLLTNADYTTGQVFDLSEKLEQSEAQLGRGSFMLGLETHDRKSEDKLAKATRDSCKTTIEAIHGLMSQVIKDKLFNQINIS

[2] = biological target: COP9 signalosome complex subunit 5 (Homo sapiens) (UniProt Q92905); assay: Induction of PD-L1 degradation in human NCI-H460 cells overexpressing CSN5 by Western blot analysis; assay type: cell-based
[3] = Toxicity in C57BL/6 mouse model xenografted with […] cells assessed as change in serum creatinine level at 10 mg/kg, ip administered daily for 10 days; assay type: organism-based; conditions: in vivo, 240 h, time 10 day
[4] = system: NCI-H460; assay: Inhibition of cell survival of human NCI-H460 cells co-cultivated with activated T cells at 10 uM incubated for 2 days by crystal violet staining based analysis; assay type: functional; conditions: time 2.0 day
[5] = system: Lewis lung carcinoma cell line; assay: Anticancer activity against Lewis lung carcinoma cells measured after 3 days by MTT assay; assay type: functional, cell-based; conditions: Mus musculus, 72 h
[6] = system: PC-9; assay: Effect on PD-L1 mRNA level in human PC-9 cells at 10 uM incubated for 24 hrs by qRT-PCR analysis; assay type: functional, cell-based
[7] = biological target: COP9 signalosome complex subunit 5 (Homo sapiens) (UniProt Q92905); assay: Induction of PD-L1 degradation in human NCI-H460 cells at 10 uM pretreated with compound followed by CHX incubation upto 8 hrs by Western blot analysis; assay type: cell-based
[8] = system: Lewis lung carcinoma cell line; assay: Antitumor activity against Lewis lung carcinoma cells xenografted in C57BL/6 mouse model at 5 mg/kg, ip administered daily for 8 days relative to control; assay type: functional; conditions: 192 h, time 8 day, read-out: TGI
[9] = biological target: COP9 signalosome complex subunit 5 (Homo sapiens) (UniProt Q92905); assay: Induction of PD-L1 degradation in human PC-9 cells incubated for 24 hrs by Western blot analysis; assay type: cell-based; conditions: dose <= 100.0 µM
[10] = system: Lewis lung carcinoma cell line; assay: Antitumor T-cell immune response in Lewis lung carcinoma cells xenografted in C57BL/6 mouse model assessed as decrease in CD3+ CD4+ population in CD45+ T cells in tumor at 10 mg/kg, ip administered daily for 10 days by flow cytometry; assay type: functional, organism-based; conditions: time 10.0 day
[11] = system: Lewis lung carcinoma cell line; assay: Antitumor T-cell immune response in Lewis lung carcinoma cells xenografted in C57BL/6 mouse model assessed as increase in ratio of CD8+ to CD4+ T cells in tumor at 10 mg/kg, ip administered daily for 10 days by flow cytometry; assay type: functional, organism-based; conditions: time 10.0 day
[12] = system: NCI-H460; assay: Antiproliferative activity against human NCI-H460 cells at 10 uM measured after 4 days by MTT assay; assay type: functional, cell-based; conditions: time 4.0 day
[13] = system: A549; assay: Effect on IFN-gamma-induced PD-L1 mRNA expression in human A549 cells at 10 uM by qRT-PCR analysis; assay type: functional, cell-based
[14] = system: Lewis lung carcinoma cell line; assay: Anticancer activity against Lewis lung carcinoma cells xenografted in C57BL/6 mouse model assessed as tumor growth inhibition at 10 mg/kg, ip administered daily for 10 days; assay type: functional, organism-based; conditions: time 10.0 day
[15] = Toxicity in C57BL/6 mouse model xenografted with […] cells assessed as obvious damage in lung at 10 mg/kg, ip administered daily for 10 days by H and E staining based analysis; assay type: organism-based; conditions: in vivo, 240 h, time 10 day
[16] = biological target: COP9 signalosome complex subunit 5 (Homo sapiens) (UniProt Q92905); assay: Binding affinity to CSN5 in NCI-H460 cell lysate by Western blot analysis; assay type: subcellular
[17] = system: Lewis lung carcinoma cell line; assay: Antiproliferative activity against Lewis lung carcinoma cells at 10 uM measured after 4 days by MTT assay; assay type: functional, cell-based; conditions: Mus musculus, time 4.0 day

COc1cc2c(cc1OC)-c1cc3ccc(OC)c(OCCN)c3c[n+]1CC2.[Cl-]
Activity [1]: Active | Activity [2]: inactive | Activity [3]: Non-toxic | inhibition [4]: Active | IC50 [5]: 122 µM | Activity [6]: inactive | Activity [7]: inactive | inhibition in vivo at 5 mg/kg [8]: 66% | Activity [9]: Dose-dependent-effect | Activity [10]: Active | Activity [11]: Active; Highest Enhancement Of Ratio Observed | Activity [12]: inactive | Activity [13]: inactive | Activity [14]: Active | Activity [15]: Non-toxic | Activity [16]: Active | Activity [17]: inactive
